In patent publication US20180282281A1, “IMMUNOREGULATORY AGENTS” (FLEXUS BIOSCIENCES, INC., priority 2014, published 2018):

What follows are molecules tested against T1, human IDO1 (Homo sapiens, UniProt P14902) (assay: HEK293 human IDO1 cell-based IDO inhibition assay). Conditions: read-out: HEK Human IDO-1 Potency.
T1 construct: expressed in transfected cells
Procedure: 1HEK293 cells were transfected with a pCDNA-based mammalian expression vector harboring human IDO1 cDNA (NM 002164.2) by electroporation. They were cultured in medium (DMEM with 10% FBS) containing 1 mg/ml G418 for two weeks. Clones of HEK293 cells that stably expressed human IDO1 protein were selected and expanded for IDO inhibition assay.
The human IDOL/HEK293 cells were seeded at 10,000 cells per 50 μL per well with RPMI/phenol red free media contains 10% FBS in a 384-well black wall clear bottom tissue culture plate (Matrix Technologies LLC) 100 nL of certain concentration of compound was then added to each well using ECHO liquid handling systems. The cells were incubated for 20 hours in 37° C. incubator with 5% CO2.
The compound treatments were stopped by adding Trichloroacetic Acid (Sigma-Aldrich) to a final concentration at 0.2%. The cell plate was further incubated at 50° C. for 30 minute. The equal volume supernatant (20 μL) and 0.2% (w/v) Ehrlich reagent (4-dimethylaminobenzaldehyde, Sigma-Aldrich) in glacial acetic acid were mixed in a new clear bottom 384-well plate. This plate was then incubated at room temperature for 30 minute. The absorbance at 490 nm was measured on Envision plate reader.

T1 sequence (P14902 whole entry): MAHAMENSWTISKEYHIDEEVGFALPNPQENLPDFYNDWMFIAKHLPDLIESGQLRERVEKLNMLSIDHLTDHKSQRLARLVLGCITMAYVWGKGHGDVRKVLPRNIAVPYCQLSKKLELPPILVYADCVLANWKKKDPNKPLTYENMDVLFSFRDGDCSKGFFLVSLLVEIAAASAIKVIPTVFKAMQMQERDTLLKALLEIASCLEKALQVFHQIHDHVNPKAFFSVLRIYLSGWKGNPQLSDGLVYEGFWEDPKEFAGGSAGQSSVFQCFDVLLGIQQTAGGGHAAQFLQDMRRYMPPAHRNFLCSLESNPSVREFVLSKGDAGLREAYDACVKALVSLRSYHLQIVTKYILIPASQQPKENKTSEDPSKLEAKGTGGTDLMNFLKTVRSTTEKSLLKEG

`CC(C(=O)Nc1ccc(Cl)cc1)N1CCC(Oc2ccc3nccc(Cl)c3c2)CC1` (single isomer, unassigned) [Example 94] and `CC(C(=O)Nc1ccc(F)cc1)N1CCC(Oc2ccnc3ccc(F)cc23)CC1` (single isomer, unassigned) [compound 105] cannot be ordered by IC50: < 250 nM for the first, < 50 nM for the second.

Compared with `CC(C(=O)Nc1ccc(Cl)cc1)N1CCN(c2ccnc3ccc(F)cc23)CC1` (single isomer, unassigned) [Example 129, N-(4-Chlorophenyl)-2-(4-(6-fluoroquinolin-4-yl)piperazin-1-yl)propanamide], `COCC(C(=O)Nc1ccc(Cl)cc1)N1CCN(c2ccnc3ccc(F)cc23)CC1` (single isomer, unassigned) [Example 135, N-(4-chlorophenyl)-2-(4-(6-fluoroquinolin-4-yl)piperazin-1-yl)-3-methoxypropanamide] is higher in IC50: < 250 nM for the first, > 250 nM for the second.

First: CC(C(=O)Nc1ccc(Cl)cc1)N1CCN(c2ccnc3ccc(F)cc23)CC1 (single isomer, unassigned) [Example 130, N-(4-Chlorophenyl)-2-(4-(6-fluoroquinolin-4-yl)piperazin-1-yl)propanamide]
Second: CCCC(C(=O)Nc1ccc(Cl)cc1)N1CCN(c2ccnc3ccc(F)cc23)CC1 (single isomer, unassigned) [Example 245, N-(4-Chlorophenyl)-2-(4-(6-fluoroquinolin-4-yl)piperazin-1-yl)pentanamide]
The IC50 of the first is higher: > 250 nM for the first, < 250 nM for the second.

`CC(C(=O)O)c1ccc(C[C@@H](C(=O)Nc2ccc(Cl)cc2)[C@H]2CC[C@@H](c3ccnc4ccc(F)cc43)CC2)cc1` (single isomer, unassigned) [Example 138] and `C[C@H](C(=O)Nc1ccc(Cl)cc1)[C@H]1CC[C@@H](c2ccnc3ccc(I)cc32)CC1` (single isomer, unassigned) [Example 152a] cannot be ordered by IC50: < 50 nM for the first, < 50 nM for the second.

Going from `C[C@H](C(=O)Nc1ccc(Cl)cc1)[C@H]1CC[C@@H](c2ccnc3ccnn32)CC1` (single isomer, unassigned) [Example 144a] to `C[C@@H](C(=O)Nc1ccc(Cl)cc1)[C@H]1CC[C@@H](c2ccnc3ccnn32)CC1` (single isomer, unassigned) [Example 144b], the IC50 rises from < 50 nM to > 250 nM. The first is the more potent here.

First: C[C@H](C(=O)Nc1ccc(Cl)cc1)[C@H]1CC[C@H](c2ccnc3ccnn32)CC1 (single isomer, unassigned) [Example 144c]
Second: C[C@@H](C(=O)Nc1ccc(Cl)cc1)[C@H]1CC[C@H](c2ccnc3ccnn32)CC1 (single isomer, unassigned) [Example 144d]
The IC50 of the first is lower: < 250 nM for the first, > 250 nM for the second.

Compared with `C[C@H](C(=O)Nc1ccc(Cl)cc1)[C@H]1CC[C@@H](c2ccnc3ncccc32)CC1` (single isomer, unassigned) [Example 148a], `C[C@@H](C(=O)Nc1ccc(Cl)cc1)[C@H]1CC[C@@H](c2ccnc3ncccc32)CC1` (single isomer, unassigned) [Example 148b] is lower in IC50: > 250 nM for the first, < 50 nM for the second.

`C[C@H](C(=O)Nc1ccc(Cl)cc1)[C@H]1CC[C@H](c2ccnc3ncccc32)CC1` (single isomer, unassigned) [Example 148c] and `C[C@@H](C(=O)Nc1ccc(Cl)cc1)[C@H]1CC[C@H](c2ccnc3ncccc32)CC1` (single isomer, unassigned) [Example 148d] cannot be ordered by IC50: < 50 nM for the first, < 250 nM for the second.

Going from `C[C@H](C(=O)Nc1ccc(Cl)cc1)[C@H]1CC[C@@H](c2ccnc3cn[nH]c32)CC1` (single isomer, unassigned) [Example 150a] to `C[C@@H](C(=O)Nc1ccc(Cl)cc1)[C@H]1CC[C@@H](c2ccnc3cn[nH]c32)CC1` (single isomer, unassigned) [Example 150b], the IC50 rises from < 50 nM to > 250 nM. The first is the more potent here.

Going from `C[C@H](C(=O)Nc1ccc(Cl)cc1)[C@H]1CC[C@H](c2ccnc3cn[nH]c32)CC1` (single isomer, unassigned) [Example 150c] to `C[C@@H](C(=O)Nc1ccc(Cl)cc1)[C@H]1CC[C@H](c2ccnc3cn[nH]c32)CC1` (single isomer, unassigned) [Example 150d], the IC50 falls from > 250 nM to < 50 nM. The second is the more potent here.

`C[C@@H](C(=O)Nc1ccc(Cl)cc1)[C@H]1CC[C@@H](c2ccnc3ccc(I)cc32)CC1` (single isomer, unassigned) [Example 152b] and `C[C@H](C(=O)Nc1ccc(Cl)cc1)[C@H]1CC[C@H](c2ccnc3ccc(I)cc32)CC1` (single isomer, unassigned) [Example 152c] cannot be ordered by IC50: < 50 nM for the first, < 250 nM for the second.

`C[C@@H](C(=O)Nc1ccc(Cl)cc1)[C@H]1CC[C@H](c2ccnc3ccc(I)cc32)CC1` (single isomer, unassigned) [Example 152d] and `C[C@@H](C(=O)Nc1cccc(Cl)c1)[C@H]1CC[C@@H](c2ccnc3ccc(F)cc32)CC1` [Example 65, (R)-N-(3-chloropehnyl)-2-((cis)-4-(6-fluoroqinolin-4-yl)cyclohexyl)propanamide] cannot be ordered by IC50: < 50 nM for the first, < 50 nM for the second.

`CCCC(C(=O)Nc1ccc(Cl)cc1)N1CCN(c2ccnc3ccc(F)cc23)CC1` (single isomer, unassigned) [Example 246, N-(4-Chlorophenyl)-2-(4-(6-fluoroquinolin-4-yl)piperazin-1-yl)pentanamide] and `CCCC(C(=O)NC1(C)CCCCC1)N1CCN(c2ccnc3ccc(F)cc23)CC1` (single isomer, unassigned) [Example 248, 2-(4-(6-Fluoroquinolin-4-yl)piperazin-1-yl)-N-(1-methylcyclohexyl)pentanamide] cannot be ordered by IC50: > 250 nM for the first, > 250 nM for the second.

`CCCC(C(=O)NC1(C)CCCCC1)N1CCN(c2ccnc3ccc(F)cc23)CC1` (single isomer, unassigned) [Example 249, 2-(4-(6-Fluoroquinolin-4-yl)piperazin-1-yl)-N-(1-methylcyclohexyl)pentanamide] and `Cc1ccc(NC(=O)C(C)N2CCC(Oc3ccnc4ccc(F)cc34)CC2)cc1` (single isomer, unassigned) [compound 109] cannot be ordered by IC50: < 50 nM for the first, < 50 nM for the second.

`C[C@@H](C(=O)Nc1ccc(Cl)cc1)[C@H]1CC[C@@H](c2ccnc3c2ncn3C)CC1` (single isomer, unassigned) [Example 251a, N-(4-chlorophenyl)-2-(4-(3-methyl-3H-imidazo[4,5-b]pyridin-7-yl)cyclohexyl)propanamide] and `C[C@@H](C(=O)Nc1ccc(Cl)c(Cl)c1)[C@H]1CC[C@@H](c2ccnc3ccc(F)cc32)CC1` [Example 66, (R)-N-(3,4-dichlorophenyl)-2-((cis)-4-(6-fluoroquinolin-4-yl)cyclohexyl)propanamide] cannot be ordered by IC50: < 50 nM for the first, < 50 nM for the second.

First: C[C@@H](C(=O)Nc1ccc(Cl)cc1)[C@H]1CC[C@@H](c2ccnc3c2ncn3C)CC1 (single isomer, unassigned) [Example 251b, N-(4-chlorophenyl)-2-(4-(3-methyl-3H-imidazo[4,5-b]pyridin-7-yl)cyclohexyl)propanamide]
Second: Cc1cc(Cl)ccc1NC(=O)[C@H](C)[C@H]1CC[C@@H](c2ccnc3ccc(F)cc32)CC1 [Example 64, (R)-N-(4-chloro-2-methylphenyl)-2-((cis)-4-(6-fluoroquinolin-4-yl)cyclohexyl)propanamide]
The IC50 of the first is higher: > 250 nM for the first, < 250 nM for the second. The second is the more potent here.

`C[C@@H](C(=O)Nc1ccc(Cl)cc1)[C@H]1CC[C@@H](c2ccnc3c2ncn3C)CC1` (single isomer, unassigned) [Example 251c, N-(4-chlorophenyl)-2-(4-(3-methyl-3H-imidazo[4,5-b]pyridin-7-yl)cyclohexyl)propanamide] and `C[C@@H](C(=O)Nc1ccccc1)[C@H]1CC[C@@H](c2ccnc3ccc(F)cc32)CC1` [Example 58, (R)-2-((cis)-4-(6-fluoroquinolin-4-yl)cyclohexyl)-N-phenylpropanamide] cannot be ordered by IC50: < 50 nM for the first, < 50 nM for the second.

Going from `C[C@@H](C(=O)Nc1ccc(Cl)cc1)[C@H]1CC[C@@H](c2ccnc3c2ncn3C)CC1` (single isomer, unassigned) [Example 251d, N-(4-chlorophenyl)-2-(4-(3-methyl-3H-imidazo[4,5-b]pyridin-7-yl)cyclohexyl)propanamide] to `C[C@@H](C(=O)Nc1ccc(C(F)(F)F)cc1)[C@H]1CC[C@@H](c2ccnc3ccc(F)cc32)CC1` [Example 60, (R)-2-((cis)-4-(6-fluoroquinolin-4-yl)cyclohexyl)-N-(4-(trifluoromethyl)phenyl)propanamide], the IC50 falls from > 250 nM to < 50 nM. The second is the more potent here.

`CC(C(=O)Nc1ccc(F)cc1)N1CCC(Oc2ccnc3ccc(F)cc23)CC1` (single isomer, unassigned) [compound 106] and `Cc1ccc(NC(=O)C(C)N2CCC(Oc3ccnc4ccc(F)cc34)CC2)cc1` (single isomer, unassigned) [compound 110] cannot be ordered by IC50: > 250 nM for the first, > 250 nM for the second.

First: Cc1cc(F)ccc1NC(=O)[C@H](C)[C@H]1CC[C@@H](c2ccnc3ccc(F)cc32)CC1 [Example 59, (R)-N-(4-fluoro-2-methylphenyl)-2-((cis)-4-(6-fluoroquinolin-4-yl)cyclohexyl)propanamide]
Second: CCOc1ccccc1NC(=O)[C@H](C)[C@H]1CC[C@@H](c2ccnc3ccc(F)cc32)CC1 [Example 62, (R)-N-(2-ethoxyphenyl)-2-((cis)-4-(6-fluoroquinolin-4-yl)cyclohexyl)propanamide]
The IC50 of the first is higher: > 250 nM for the first, < 250 nM for the second.

For `C[C@@H](C(=O)Nc1ccc2c(c1)OC(F)(F)O2)[C@H]1CC[C@@H](c2ccnc3ccc(F)cc32)CC1` [Example 61, (R)-N-(2,2-difluorobenzo[d][1,3]dioxol-5-yl)-2-((cis)-4-(6-fluoroquinolin-4-yl)cyclohexyl)propanamide], the IC50 was < 50 nM.
